Reference: patent publication US9809593B2, “Use of tetramic acid derivatives as nematicides” (Syngenta Participations AG, priority 2013, dated 2017)

What was measured:
Format in all cases: in vivo
[1] = test system: Heterodera schachtii Schmidt (SBCN); assay: Pot trial: seed treatment and foliar spray in sugar beets, cysts per root system; conditions: sugar beet, 25 days after inoculation
Experimental: POT TRIALS: Seed treatments and Foliar spray in sugar beets (Beta Vulgaris cv Impulse) against root nematodes Heterodera schachtii Schmidt (SBCN)
8×350 ml pots were used per treatment containing 350 ml soil (70% drench soil and 30% sand). 1 Seed per pot were planted into pot soil 0.5 cm deep and allowed to germinate and grow into young plants. Plants were kept under constant conditions of 25° C. during the day and 23° C. during the night with a humidity of 50-60% with 14 hour light periods. The pots were artificially infested with nematodes (SBCN) 7 days after sowing. For inoculation, 3 holes are drilled into the soil and 2 ml suspension of the nematodes per hole are applied.
(§1) APPLICATION: Compounds B and comparison Spirotetramat were sprayed as a normal foliar spray with hollow cone nozzles directed onto the plants. The compounds B and Spirotetramat used were formulated as a suspension concentrate formulation at a dose rate of 100 g/ha. The first foliar spray was applied 14 days after sowing (i.e. 7 days after inoculation). A second foliar spray was carried out 21 days after sowing (i.e. 14 days after inoculation).
Abamectin was used as a seed treatment. AVICTA® 400 FS from Syngenta AG was used at a rate of 400 g/L as a flowable concentrate (FS) formulation and applied to the seeds as a slurry to provide a rate of 0.6 mg and 1 mg of active ingredient per seed.
ASSESSMENT: Sugar beet plants were harvested 25 days after inoculation. Sugar beet root and shoot weights were assessed according to standard practice. Number of cysts per root system and as a function of root weight were assessed.

[2] = test system: Meloidogyne incognita (RKNi); assay: Pot trial: foliar spray in cotton against root-knot nematodes; conditions: for performance in comparison to prior art tetramic acid compound spirotetramat: foliar 100 g/ha
Excerpt: POT TRIALS: Foliar spray in Cotton against nematodes Meloidogyne incognita (RKNi) using
12 1-L Clay pots were used per treatment. Cotton: Fibre Max 966 seeds were planted into pots and allowed to germinate and grow into young plants. The pots were artificially infested with nematodes (RKNi) 2 days after treatment.
APPLICATION: Compounds A and B and comparison Spirotetramat were sprayed as a normal foliar spray with hollow cone nozzles directed onto the plants. The compounds A, B and spirotetramat used were formulated as a suspension concentrate formulation at a dose rate of 100 g/ha. The compounds were diluted to a spray volume of approx […], which was used on the young plants. The treatment was applied when the plants had at least 2 true leaves.
Industry comparison Abamectin as a seed treatment was also included in the trials as a comparison. AVICTA® 500 FS from Syngenta AG was used at a rate of 500 g/L as a flowable concentrate (FS) formulation and applied to the seeds as a slurry to provide a rate of 0.15 mg of active ingredient per seed.
ASSESSMENT: Plants were removed 2 days after foliar spray treatment to assess penetration of the nematode in the roots with a dyeing method. Root galling/cysts were assessed according to standard practice.

[3] = test system: Heterodera schachtii Schmidt (SBCN); assay: Pot trial: seed treatment and foliar spray in sugar beets, tuber weight; conditions: sugar beet, n = 8-10, harvest after 4 months
Excerpt: POT TRIALS: Seed treatments and Foliar spray in sugar beets (Beta Vulgaris cv Impulse) against root nematodes Heterodera schachtii Schmidt (SBCN) (origin Münster, Germany)
15 7-L pots were used per treatment containing 7-L soil with an organic matter content of 2% (drench soil+sand). Seeds were planted into pot soil 1 cm deep and allowed to germinate and grow into young plants in a polytunnel. During the winter months, the pots were placed in a greenhouse. The pots were artificially infested with nematodes (SBCN) when preparing the soil for each pot and just before planting.
as §1, with “A” for “B”, “sowing.” for “sowing (i.e. 7 days after inoculation).”, “3 weeks later.” for “21 days after sowing (i.e. 14 days after inoculation).”
Abamectin was used as a seed treatment. AVICTA® 500 FS from Syngenta AG was used at a rate of 500 g/L as a flowable concentrate (FS) formulation and applied to the seeds as a slurry to provide a rate of 0.6 mg of active ingredient per seed.
ASSESSMENT: Sugar beet plants were harvested after 4 months according to the prevailing temperatures and weather conditions. Sugar beet tuber weights were assessed according to standard practice.

[4] = seed treatment 0.15 mg/seed at BBCH 00, artificial infestation at crop stage BBCH 14
[5] = foliar 100 g/ha at BBCH 14, artificial infestation 2 days after foliar spray
[6] = foliar 100 g/ha, first application +14 days after sowing

Molecule	Efficacy in % of cyst nematodes per root system ([1]; Abamectin 0.6 mg/seed seed treatment) [%]	Efficacy in % of cyst nematodes per root system ([1]; Abamectin 1 mg/seed seed treatment) [%]	% root length in cm compared to check (= 100%) [2, 4] [%]	Number of root galls per plant [2, 4]	Mean tuber weight relative to inoculated check (%), Observed % ([3]; seed treatment 0.6 mg/seed at sowing) [%]	performance in comparison to prior art tetramic acid compound spirotetramat [2]	% root length in cm compared to check (= 100%) [2, 5] [%]	Number of root galls per plant [2, 5]	Mean tuber weight relative to inoculated check (%), Observed % [3, 6] [%]	Efficacy in % of cyst nematodes per root system ([1]; Compound B 100 g/ha foliar) [%]
Abamectin	42	60	211	0.33	6.4	–	–	–	–	–
CCOC(=O)OC1=C(c2c(C)cc(Cl)cc2C)C(=O)NC12CCN(OC)CC2 [Compound A]	–	–	–	–	–	outperformed spirotetramat	204	1	17.0	–
CCOC(=O)OC1=C(c2cc(C)ccc2C)C(=O)N[C@]12CC[C@@H](OC)CC2 [Spirotetramat]	–	–	–	–	–	–	100	5.83	30.0	–
CCOC(=O)OC1=C(c2c(C)cc(Cl)cc2C)C(=O)N(C)C12CCN(OC)CC2 [Compound B]	–	–	–	–	–	outperformed spirotetramat	213	0.33	–	12
